In PMC11091117, “A fluorescently-tagged tick kinin neuropeptide triggers peristalsis and labels tick midgut muscles” (Scientific Reports, 2024):
Entries after “also recorded” stand apart in the source; their conditions may differ.

Key:
[1] = test system: tick kinin receptor in midgut muscles; assay: Fluorescent labeling of live midgut ex vivo, confocal microscopy; format: binding, Rhipicephalus sanguineus
Excerpt: Three peptides were used in this study. These included: 1) the ligand for the endogenous tick kinin receptor from Rhipicephalus sanguineus, Rhisa-kinin 8 peptide of sequence GTGEDQAFSPWGamide (Rhisa-K-8; RK8; of identical sequence to Rhimi-K-8 in Rhipicephalus microplus)[48], 2) the same peptide but fluorescently labeled at the N-terminus with tetramethylrhodamine (TMR) a red fluorescent dye, designated TMR-Rhisa-K-8 (TMR-RK8), and 3) a labeled peptide synthesized with the scrambled sequence of the kinin ligand, designated TMR-Scrambled. The sequence of TMR-RK8 was TMR-C-GTGEDQAFSPWGamide). The TMR-Scrambled kinin (TMR-C-GTQWGPGFEADSamide) served as a negative control for tissue labeling. All peptides were custom-synthesized and purchased from GenScript (Piscataway, NJ, USA) with a purity of ≥ 95% and the cysteine in bold in both sequences was added to attach the label. Experiments were replicated with independently synthesized batches (4 mg each) of labeled and unlabeled peptides, for reproducibility. Unlabeled RK8 was used as a competitive ligand to verify target-specific binding of the labeled TMR-RK8 (see Ligand Competition Assay). For cell assays, the peptide stock solutions (100 µM) were made in 1% dimethyl sulfoxide (DMSO) in Hank’s balanced salt solution (HBSS, Thermo Fisher, Waltham, USA). For fluorescent cell labeling, peptide working solutions (10 µM) were prepared in HBSS from stock solutions. For assays on the midgut, peptides were solubilized and diluted in a tick physiological saline consisting of 140 mM NaCl, 5 mM KCl, 1 mM MgCl2, 5 mM CaCl2, 4 mM NaHCO3, and 5 mM HEPES, pH 7.2[49].
(§1) Individual female ticks were immobilized on a Petri dish filled with wax by submerging their legs in melted wax heated with a soldering pencil (Electronic Control Soldering Station EC 1000, Weller, Apex, North Carolina, USA). Females were dissected under physiological saline following the protocol described by Tidwell et al.[51]. The tick was cut along the edge of the scutum/alloscutum using a stainless steel #12 scalpel blade (Integra Miltex, York, PA, USA), after which the scutum was removed with a pair of fine forceps. To expose the midgut for removal, the tracheae, Malpighian tubules, ovaries, rectal sac, and synganglion were removed with fine forceps in that order. The midgut was then carefully removed and placed into 200 µL of fresh tick saline (See Reagents and Peptides) on a single gasketed incubation chamber (500 µL, Size 22 × 40 mm, Electron Microscopy Sciences, Hatfield, PA). The midguts were then rinsed three times with the physiological tick saline for subsequent fluorescent labeling or activity experiments.
To determine the location of the tick kinin receptor in the midgut of ticks, a commercially synthesized Rhisa-kinin peptide 8[52] conjugated with a stable, red fluorophore (TMR-RK8) or a similarly labeled peptide of scrambled sequence (TMR-Scrambled) were applied to freshly dissected midguts ex vivo. For this, midguts of unfed adult females were incubated in ice-cold saline for 10 min. The saline was removed before incubation in 200 µL of 4’,6-diamidino-2-phenylindole dihydrochloride (DAPI, Sigma, 1 µg/mL in saline) for 1 min and rinsed with saline (200 µL) once. After saline removal, the midgut was incubated for 1 min with 200 µL of 10 µM of either TMR-Scrambled kinin or TMR-RK8, then the labeled peptide solution was removed by pipette and the midgut was rinsed twice with 200 µL saline. […]

tick midgut = assay: Tick midgut contraction assay with EthoVision video analysis; design: species or system Rhipicephalus sanguineus
Excerpt: as §1
Midguts were dissected from immobilized female ticks under tick saline, as described under the Midgut Dissection. Ten different midguts were used for each of the two treatments, and ticks were of the same age and batch and had been maintained under the same conditions. Dissected midguts were placed individually into 200 µL of tick saline for 10 min at 28 °C on a gasketed glass coverslip (500 µL, Size 22 × 40 mm) serving as incubation chamber. […] After the final wash and removal of saline, 200 µL of saline were added, and a microscopy coverslip (24 × 60 mm, VWR, Radnor, PA) was placed over the gasketed portion of the incubation chamber, which height (0.5 mm) fits to prevent the midgut from floating, but still allows midgut peristalsis. The midguts were observed and filmed under a dissecting microscope (Olympus SZ61, Japan) equipped with an Infinity 5 camera (Teledyne Lumenera, Ottawa, ON, Canada). All videos were recorded for 1 min with the INFINITY ANALYZE 7 software (Teledyne Lumenera) at 30 frames/second with a 2464 × 2056 resolution. The field of view in all videos recorded represents 4 × 3.5 mm to capture the entire tick midguts under saline. All video files in Windows Media Video (.wmv) format obtained from the Infinity Analyze 7 software were converted to the MP4 format using CloudConvert (cloudconvert.com, Lunaweb, Munich, Germany) for analyses with the EthoVision XT 17 software (Noldus Information Technology, Wageningen, The Netherlands).
We used the EthoVision 17 XT software to quantify the “activity” (pixel change) of the midguts from the videos recorded. This software defines activity as the percentage of pixels that have changed in the entire defined arena between the current image and previous image. The videos are recorded in 2464 × 2056 resolution and the arena is set to be the entire video screen. Video files were uploaded into the program and analyzed starting from time zero to the end of the 60 s video. Detection settings for activity included the activity threshold which was set to 5 to achieve zero detection when the midgut was immobile. Although the video captured 30 frames (images) per s, for the video analysis we chose a “sample rate” of 7 samples /s, with sample rate being the number of images from the video the EthoVision program analyzes per second. To calculate activity, each pixel of the video image was compared from one image to the next, and the proportion of pixel changes was calculated by dividing the number of pixels changed from one image to the next by the total number of pixels in the image. Care was given for the midgut to occupy most of the arena, as the activity analyses will reflect the midgut movement as a proportion of the total arena. Midgut activity is observed as pixel changes, which are represented by the red-colored pixels in the S4 video. The mean pixel change per midgut was then determined by averaging the pixel changes from all samples within the recording period. […]

## TMR-C-GTGEDQAFSPWGamide [TMR-RK8]
[1]; 10 µM TMR-RK8, Alexa Fluor 488 Phalloidin 15 min, midgut muscle fibers
  displacement of TMR-RK8 label by phalloidin (in words): no observed phalloidin displacement of the TMR-RK8 label
[1]; 10 µM labeled peptide, 1 min, midguts ex vivo, Z-slices under the surface
  non-specific labeling below midgut surface (in words): aggregation of TMR-RK8 signal in what appears to be lipid vesicles; also recorded: non-specific labeling observed in lipid vesicles inside the midgut
[1]; 10 µM labeled peptide, 1 min, tick saline pH 7.2, midguts of unfed females ex vivo, DAPI and Alexa 488-phalloidin, confocal 20X/40X
  labeling of midgut surface muscles (in words): labeled the kinin receptor in muscles; also recorded: localized the kinin receptor to both circular and longitudinal muscles; also recorded: signal was observed in the tick midgut muscles under confocal microscopy; also recorded: observed only on the surface of the midgut; also recorded: binding specifically to the circular (white arrowheads) and longitudinal (white arrows) muscles
Tick midgut; 1 µM TMR-RK8, after 1 min of exposure, 4X speed
  midgut contractions, S4 Video (in words): Rapid contractions were observed shortly after treatment
Tick midgut; 10 µM, 1 min, 28 °C, midguts of unfed females ex vivo, video recorded 1 min
  midgut peristalsis/contractions (in words): inducing significant midgut peristalsis; also recorded: induced peristalsis
Tick midgut; 10 µM, 1 min, rinsed twice, 28 °C, tick saline, 60 s video, 7 samples/s, EthoVision XT 17, activity threshold 5, N = 10 midguts
  mean activity (mean pixel change, percentage of pixels changed in arena): 1%
Tick midgut; 10 µM, N = 10 vs N = 10, for the duration of the videos
  mean activity of midguts compared to TMR-Scrambled (in words): higher mean activity
Tick midgut; of 5,065,984 pixels per sample, 10 µM, 1 min, 28 °C, N = 10
  pixels changing from each sample to the next: about 50,660 pixels
Tick midgut; ratio of mean activity, 10 µM, N = 10 per treatment
  movement of midguts relative to TMR-Scrambled treated midguts: 10 factor
